Like-named read-outs stand apart in the source and are kept apart here.
Key:
[1] = system: LPS endotoxin (Escherichia coli 0111:B4)-induced plasma TNF-α; conditions: for TNF-α at 1 hr: plasma 1 hr after LPS; for TNF-α at 2 hr: plasma 2 hr after LPS
Method: LPS endotoxin (300 ng/kg) was injected intravenously into untreated dogs (◯) or simultaneously with 0.1 mg/kg E5564 (Δ) one hour after E5564 administration (□) or three hours after E5564 administration (●). Blood was drawn and analyzed for TNF-α concentration by bioassay, as is described in the Appendix, below. Each value represents the mean±S.E.M. of four animals.
In both assays, activity of the antagonist is quantitated by analysis of the cytokines induced by LPS administration.
Escherichia coli LPS (Serotype 0111:B4; phenol extracted, Cat. # L-2630) was purchased from Sigma Chem. Co. Ltd., St. Louis, Mo., USA. Lyophylized E5564 was solubilized in 5 ml of sterile water (Otsuka Pharm. Co. Ltd., Tokyo, Japan). LPS was weighed to an accuracy of 1/10 mg and solubilized in 5% glucose (Otsuka Pharm. Co. Ltd., Tokyo, Japan). The LPS solution was sonicated with a bath-type sonicator for 15 minutes after which aliquots were immediately prepared and stored at −20° C. Prior to use, the solution was sonicated for one or two minutes, and then dilutions were prepared in 5% glucose.
Nine month-old beagles were obtained from Kawashima-shoji Co. Ltd., Gifu, Japan) and housed in stainless steel wire cages (W 800 mm×D 680 mm×H 680 mm; one dog per cage) in a room with a constant temperature of 20-24° C., humidity of 45-65%, and 12 hour light-dark cycle. The animals were provided with pellet food (DS, Oriental Yeast Co., Tokyo, Japan) and water ad libitum. LPS endotoxin (300 ng/0.1 ml/kg) was injected into the vein of the right foreleg at a rate of 1-2 ml/min, and E5564 was injected into the vein of the left foreleg at a rate of 10-20 ml/min.
Immediately before or 1, 2, or 4 hours after intravenous injection of LPS and E5564, 1.5 ml of blood was drawn from the left cephalic vein. One milliliter was transferred into a tube containing 10 U of heparin (Mochida Pharm. Co. Ltd., Tokyo, Japan), centrifuged (2000×g, 5 minutes, 4° C.), and the plasma was used for bioassays for TNF-α and IL-6.
Aliquots of the plasma were tested for TNF in a bioassay based on the TNF-dependent cell death of L-P3 cells in the presence of actinomycin D. The L-P3 cell line is more sensitive to TNF-induced cell death than the L-929 cell line that is more commonly used.

[2] = Pharmacokinetics in plasma after 72 hours intravenous infusion; conditions: beagle, dog
Method: Plasma levels of E5564 were determined during and after 72 hours of intravenous infusion of 0.03 mg/kg/hr E5564 (◯, ●), 0.1 mg/kg/hr E5564 (□, ▪), and 1 mg/kg/hr E5564 (Δ, ▴) into female (closed symbols) or male (open symbols) beagle dogs. At the indicated times, blood was drawn and analyzed for E5564 concentration by extraction and analysis by HPLC. Each value represents the mean±S.E.M. of three animals.

[3] = Pharmacokinetics in plasma after single bolus intravenous injection; conditions: dog
[4] = 0.1 mg/kg E5564 iv one hour before LPS 300 ng/kg iv
[5] = 0.1 mg/kg E5564 iv three hours before LPS 300 ng/kg iv

For `CCCCCC/C=C\CCCCCCCCCC(=O)N[C@H]1[C@H](OC[C@H]2O[C@H](OP(=O)(O)O)[C@H](NC(=O)CC(=O)CCCCCCCCCCC)[C@@H](OCCCCCCCCCC)[C@@H]2O)O[C@H](COC)[C@@H](OP(=O)(O)O)[C@@H]1OCC[C@@H](CCCCCCC)OC` [E5564, α-D-Glucopyranose, 3-O-decyl-2-deoxy-6-O-[2-deoxy-3-O-[(3R)-3-methoxydecyl)-6-O-methyl-2-[[(11Z)-1-oxo-11-octadecenyl)amino]-4-O-phosphono-β-D-glucopyranosyl]-2-[(1,3-dioxotetradecyl)amino]-, 1-(dihydrogen phosphate)], the “Activity of the endotoxin antagonist, % of its original activity” value ([1]; 0.1 mg/kg E5564, LPS administered three hours after E5564 dose) was “about 48%”, the “TNF-α at 1 hr” value [1, 4] was 0 units/ml and the “TNF-α at 2 hr” value [1, 4] was 0 units/ml. The “TNF-α at 1 hr” value ([1]; 0.1 mg/kg E5564 iv simultaneously with LPS 300 ng/kg iv, n=4 dogs) was 0 units/ml, the “TNF-α at 2 hr” value ([1]; 0.1 mg/kg E5564 iv simultaneously with LPS 300 ng/kg iv) was 0 units/ml and the “TNF-α at 1 hr” value [1, 5] was 1353 ± 340 units/ml. The “TNF-α at 2 hr” value [1, 5] was 190 ± 113 units/ml, the AUC(0-t) ([2]; female, 0.1 mg/kg) was 790 ± 51 µg·h/mL and the concentration at 72 h ([2]; female, 0.1 mg/kg) was 10.3 ± 0.93 µg/mL. For the same compound, the half-life ([2]; female, 0.1 mg/kg) was 40.9 ± 9.5 h, the AUC(0-t) ([2]; female, 0.3 mg/kg) was 2620 ± 737 µg·h/mL and the concentration at 72 h ([2]; female, 0.3 mg/kg) was 32.4 ± 5.72 µg/mL. It also gave a half-life ([2]; female, 0.3 mg/kg) of 38 ± 11.6 h, an AUC(0-t) ([2]; female, 1 mg/kg) of 29600 ± 1510 µg·h/mL and a concentration at 72 h ([2]; female, 1 mg/kg) of 394 ± 14.2 µg/mL. The half-life ([2]; female, 1 mg/kg) was 32 ± 2.8 h, the AUC(0-t) ([2]; male, 0.1 mg/kg) was 1070 ± 139 µg·h/mL and the concentration at 72 h ([2]; male, 0.1 mg/kg) was 13.1 ± 1.22 µg/mL. The half-life ([2]; male, 0.1 mg/kg) was 38.4 ± 4.5 h, the AUC(0-t) ([2]; male, 0.3 mg/kg) was 3310 ± 485 µg·h/mL and the concentration at 72 h ([2]; male, 0.3 mg/kg) was 41.3 ± 7.18 µg/mL. It also gave a half-life ([2]; male, 0.3 mg/kg) of 39.9 ± 11.2 h, an AUC(0-t) ([2]; male, 1 mg/kg) of 27100 ± 5740 µg·h/mL and a concentration at 72 h ([2]; male, 1 mg/kg) of 366 ± 69.3 µg/mL. It also gave a half-life ([2]; male, 1 mg/kg) of 35.1 ± 8.7 h, an AUC ([3]; 0.1 mg/kg) of 71.8 µg·h/mL and a half-life ([3]; 0.1 mg/kg) of 41.7 ± 2.7 h. For the same compound, the AUC ([3]; 0.3 mg/kg) was 271 ± 28.3 µg·h/mL, the half-life ([3]; 0.3 mg/kg) was 50.4 ± 2.2 h and the AUC ([3]; 1 mg/kg) was 744 µg·h/mL. For the same compound, the half-life ([3]; 1 mg/kg) was 46.4 ± 2.7 h.

Reference: patent publication US20040254128A1, “Treatment and prevention of heat shock protein-associated diseases and conditions” (priority 2001, published 2004)
